This data set concerns colorectal tissue transcripts. The experiment in a line: SAGE of normal, adenoma and cancer colorectal tissue (transcript tag counts). Set-up: species or system human. Conditions: for AD1 (SAGE tag count): SAGE library AD1; for AD2 (SAGE tag count): SAGE library AD2; for CA1 (SAGE tag count): SAGE library CA1; for CA2 (SAGE tag count): SAGE library CA2; for NC1 (SAGE tag count): SAGE library NC1; for NC2 (SAGE tag count): SAGE library NC2. An excerpt: In an effort to identify potential molecular markers of early colorectal tumors, we have here analyzed gene expression in benign and malignant colorectal tumors in an unbiased and comprehensive fashion. We used SAGE to analyze global gene expression in normal, benign and malignant colorectal tissue. SAGE is a gene expression profiling method that associates individual mRNA transcripts with 15-base tags derived from specific positions near their 3′ termini (3). The abundance of each tag provides a quantitative measure of the transcript level present within the mRNA population studied. SAGE is not dependent on pre-existing databases of expressed genes, and therefore provides an unbiased view of gene expression profiles. For the current study, SAGE libraries derived from two samples of normal colonic epithelium, two colorectal adenomas, and two colorectal cancers were analyzed.
SAGE. For the initial SAGE^3 of benign tumors, fresh adenomas were obtained from surgical specimens derived from FAP patients. Adenomas from FAP patients were employed because of the ready availability of small lesions and the certainty of inactivation of the APC pathway which initiates the formation of the majority of sporadic tumors. After histopathological verification of the neoplastic nature of the lesion (>70% neoplastic cells), total RNA was isolated by solubilizing the tissue in RNAgents Lysis Buffer (Promega, Madison, Wis.) followed by ultracentrifugation over a cesium chloride gradient. mRNA selection was performed from the purified total RNA using oligo(dT) cellulose (Life Technologies, Gaithersburg, Md.). […] Tags were extracted from the raw sequence data and, after excluding repeated ditags, linker sequences, and tags from the polyrnorphic Major Histocompatibility loci, the resulting tag libraries were compared and statistical analysis performed using SAGE software, version 4.0. Data from the libraries are publicly available at the Uniform Resource Locator (URL) address for the http file type found on the www host server that has a domain name of ncbi.nlm.nih.gov, and a path to the directory SAGE, and detailed SAGE protocols are available at the Uniform Resource Locator (URL) address for the http file type found on the www host server that has a domain name of sagenet.org, and file name of sage_protocol.htn.

For “AGGTGACTGG (chemistry not fully specified)”, the “AD1 (SAGE tag count)” value turned out to be 0, the “AD2 (SAGE tag count)” value amounted to 0, the “CA1 (SAGE tag count)” value was 0 and the “CA2 (SAGE tag count)” value was 0. Also, the “NC1 (SAGE tag count)” value was 10 and the “NC2 (SAGE tag count)” value came out at 14.
Consider “AGTGGGCTCA (chemistry not fully specified)”, for which the “AD1 (SAGE tag count)” value turned out to be 0, the “AD2 (SAGE tag count)” value is 1, the “CA1 (SAGE tag count)” value amounted to 0 and the “CA2 (SAGE tag count)” value is recorded as 0. The “NC1 (SAGE tag count)” value came to 3 and the “NC2 (SAGE tag count)” value is reported as 8.
In the case of “ATACTCCACT (chemistry not fully specified)”, the “AD1 (SAGE tag count)” value amounted to 0, the “AD2 (SAGE tag count)” value stood at 0, the “CA1 (SAGE tag count)” value is 10 and the “CA2 (SAGE tag count)” value is 3. In addition, the “NC1 (SAGE tag count)” value was 82 and the “NC2 (SAGE tag count)” value is recorded as 59.
With “ATATAATCTG (chemistry not fully specified)”, the “AD1 (SAGE tag count)” value came out at 1, the “AD2 (SAGE tag count)” value is listed as 4, the “CA1 (SAGE tag count)” value came out at 5 and the “CA2 (SAGE tag count)” value worked out at 5. Also, the “NC1 (SAGE tag count)” value came to 18 and the “NC2 (SAGE tag count)” value amounted to 14.
Take “ATCGTGGCGG (chemistry not fully specified)”: the “AD1 (SAGE tag count)” value turned out to be 19, the “AD2 (SAGE tag count)” value stood at 25, the “CA1 (SAGE tag count)” value came to 20 and the “CA2 (SAGE tag count)” value was 10. Besides, the “NC1 (SAGE tag count)” value was 193 and the “NC2 (SAGE tag count)” value was 92.
Regarding “ATGACGCTCA (chemistry not fully specified)”, the “AD1 (SAGE tag count)” value is 6, the “AD2 (SAGE tag count)” value is recorded as 5, the “CA1 (SAGE tag count)” value was 3 and the “CA2 (SAGE tag count)” value turned out to be 4. In addition, the “NC1 (SAGE tag count)” value was 22 and the “NC2 (SAGE tag count)” value is recorded as 18.
On to “ATGATGGCAC (chemistry not fully specified; the letters are possibly those of the target site)”, for which the “AD1 (SAGE tag count)” value turned out to be 1, the “AD2 (SAGE tag count)” value was found to be 0, the “CA1 (SAGE tag count)” value is 1 and the “CA2 (SAGE tag count)” value came to 0. Besides, the “NC1 (SAGE tag count)” value stood at 12 and the “NC2 (SAGE tag count)” value came out at 32.
For “ATGCGGAGTC (chemistry not fully specified)”, the “AD1 (SAGE tag count)” value is on record as 5, the “AD2 (SAGE tag count)” value amounted to 3, the “CA1 (SAGE tag count)” value came to 2 and the “CA2 (SAGE tag count)” value was 4. The “NC1 (SAGE tag count)” value worked out at 14 and the “NC2 (SAGE tag count)” value came to 13.
Consider “ATGCGGGAGA (chemistry not fully specified)”, for which the “AD1 (SAGE tag count)” value was found to be 15, the “AD2 (SAGE tag count)” value stood at 22, the “CA1 (SAGE tag count)” value turned out to be 5 and the “CA2 (SAGE tag count)” value was determined as 6. Further, the “NC1 (SAGE tag count)” value amounted to 38 and the “NC2 (SAGE tag count)” value was found to be 39.
“ATGGCACGGA (chemistry not fully specified; the letters are possibly those of the target site)”: the “AD1 (SAGE tag count)” value is 1, the “AD2 (SAGE tag count)” value is given as 1, the “CA1 (SAGE tag count)” value is listed as 3 and the “CA2 (SAGE tag count)” value was 0. Moreover, the “NC1 (SAGE tag count)” value was 6 and the “NC2 (SAGE tag count)” value was 21.
For “ATGGTCTACG (chemistry not fully specified)”, the “AD1 (SAGE tag count)” value was 0, the “AD2 (SAGE tag count)” value is given as 0, the “CA1 (SAGE tag count)” value turned out to be 1 and the “CA2 (SAGE tag count)” value came out at 0. The “NC1 (SAGE tag count)” value was determined as 10 and the “NC2 (SAGE tag count)” value was 5.
For the sequence “ATGGTGGGGG (chemistry not fully specified)”, the “AD1 (SAGE tag count)” value is 11, the “AD2 (SAGE tag count)” value is listed as 9, the “CA1 (SAGE tag count)” value amounted to 1 and the “CA2 (SAGE tag count)” value is reported as 2. In addition, the “NC1 (SAGE tag count)” value is reported as 25 and the “NC2 (SAGE tag count)” value worked out at 30.
As to “ATGTGCGTGG (chemistry not fully specified)”, the “AD1 (SAGE tag count)” value is given as 11, the “AD2 (SAGE tag count)” value is reported as 3, the “CA1 (SAGE tag count)” value was 7 and the “CA2 (SAGE tag count)” value came to 7. The “NC1 (SAGE tag count)” value is on record as 38 and the “NC2 (SAGE tag count)” value turned out to be 8.
On to “ATGTGGGCTC (chemistry not fully specified)”, for which the “AD1 (SAGE tag count)” value was found to be 0, the “AD2 (SAGE tag count)” value turned out to be 0, the “CA1 (SAGE tag count)” value came to 0 and the “CA2 (SAGE tag count)” value was 0. Also, the “NC1 (SAGE tag count)” value was found to be 7 and the “NC2 (SAGE tag count)” value is listed as 2.
On to “ATTGGAGTGC (chemistry not fully specified)”, for which the “AD1 (SAGE tag count)” value was found to be 15, the “AD2 (SAGE tag count)” value amounted to 36, the “CA1 (SAGE tag count)” value turned out to be 37 and the “CA2 (SAGE tag count)” value worked out at 19. Moreover, the “NC1 (SAGE tag count)” value worked out at 136 and the “NC2 (SAGE tag count)” value is recorded as 85.
On to “ATTTCAAGAT (chemistry not fully specified)”, for which the “AD1 (SAGE tag count)” value turned out to be 0, the “AD2 (SAGE tag count)” value worked out at 2, the “CA1 (SAGE tag count)” value is 1 and the “CA2 (SAGE tag count)” value came to 0. The “NC1 (SAGE tag count)” value is 35 and the “NC2 (SAGE tag count)” value is given as 21.
On to “CAAATAAAAG (chemistry not fully specified)”, for which the “AD1 (SAGE tag count)” value was found to be 2, the “AD2 (SAGE tag count)” value amounted to 0, the “CA1 (SAGE tag count)” value is listed as 1 and the “CA2 (SAGE tag count)” value was determined as 1. In addition, the “NC1 (SAGE tag count)” value stood at 9 and the “NC2 (SAGE tag count)” value is reported as 12.
On to “CAAGAGTTTC (chemistry not fully specified)”, for which the “AD1 (SAGE tag count)” value came out at 0, the “AD2 (SAGE tag count)” value amounted to 0, the “CA1 (SAGE tag count)” value was 0 and the “CA2 (SAGE tag count)” value was 0. Further, the “NC1 (SAGE tag count)” value is reported as 14 and the “NC2 (SAGE tag count)” value was 2.
Regarding “CACCCCTGAT (chemistry not fully specified)”, the “AD1 (SAGE tag count)” value was determined as 58, the “AD2 (SAGE tag count)” value stood at 58, the “CA1 (SAGE tag count)” value came out at 13 and the “CA2 (SAGE tag count)” value is reported as 36. For the same sequence, the “NC1 (SAGE tag count)” value came out at 73 and the “NC2 (SAGE tag count)” value came out at 169.
For “CAGTGCGTTC (chemistry not fully specified)”, the “AD1 (SAGE tag count)” value came out at 0, the “AD2 (SAGE tag count)” value is 0, the “CA1 (SAGE tag count)” value amounted to 3 and the “CA2 (SAGE tag count)” value came to 0. Moreover, the “NC1 (SAGE tag count)” value is listed as 12 and the “NC2 (SAGE tag count)” value is 3.
For the sequence “CATAGGTTTA (chemistry not fully specified)”, the “AD1 (SAGE tag count)” value worked out at 4, the “AD2 (SAGE tag count)” value amounted to 1, the “CA1 (SAGE tag count)” value turned out to be 5 and the “CA2 (SAGE tag count)” value was determined as 0. Further, the “NC1 (SAGE tag count)” value turned out to be 66 and the “NC2 (SAGE tag count)” value came to 39.
In the case of “CCAAAGCTAT (chemistry not fully specified)”, the “AD1 (SAGE tag count)” value amounted to 14, the “AD2 (SAGE tag count)” value came to 12, the “CA1 (SAGE tag count)” value is recorded as 6 and the “CA2 (SAGE tag count)” value is 11. The “NC1 (SAGE tag count)” value came out at 42 and the “NC2 (SAGE tag count)” value came out at 16.
Regarding “CCAACACCAG (chemistry not fully specified)”, the “AD1 (SAGE tag count)” value is on record as 1, the “AD2 (SAGE tag count)” value was found to be 0, the “CA1 (SAGE tag count)” value is recorded as 0 and the “CA2 (SAGE tag count)” value turned out to be 1. Further, the “NC1 (SAGE tag count)” value came to 9 and the “NC2 (SAGE tag count)” value came out at 19.
Turning to “CCACTGCACC (chemistry not fully specified)”, the “AD1 (SAGE tag count)” value amounted to 5, the “AD2 (SAGE tag count)” value is listed as 5, the “CA1 (SAGE tag count)” value was 6 and the “CA2 (SAGE tag count)” value amounted to 14. Besides, the “NC1 (SAGE tag count)” value worked out at 21 and the “NC2 (SAGE tag count)” value is given as 19.
Consider “CCAGGGGAGA (chemistry not fully specified)”, for which the “AD1 (SAGE tag count)” value is reported as 24, the “AD2 (SAGE tag count)” value is recorded as 22, the “CA1 (SAGE tag count)” value is 10 and the “CA2 (SAGE tag count)” value is 20. Moreover, the “NC1 (SAGE tag count)” value is given as 45 and the “NC2 (SAGE tag count)” value amounted to 66.
Regarding “CCATTCCACT (chemistry not fully specified)”, the “AD1 (SAGE tag count)” value was 2, the “AD2 (SAGE tag count)” value is reported as 0, the “CA1 (SAGE tag count)” value is on record as 0 and the “CA2 (SAGE tag count)” value is reported as 0. Moreover, the “NC1 (SAGE tag count)” value came out at 13 and the “NC2 (SAGE tag count)” value is recorded as 1.

Source of the values: patent US8029764B2, “Methods for detection of colorectal cancer” (The Johns Hopkins University, priority 2001, dated 2011).
